# Laboratory results reported in the Deep4Chem optical property database.
# Experiment: solvent given as SMILES
structure (smiles),measurement,setting,value
Oc1ccccc1/C=N/N=C/c1ccccc1O,emission maximum,in CC#N,588.24 nm
same,emission maximum,in CC(C)CCCC(C)CCCC(C)CCCCC(C)CCCC(C)CCCC(C)C,583.09 nm
same,emission maximum,in CCCCCC,578.03 nm
same,emission maximum,in CCCCCCCCC,581.4 nm
same,emission maximum,in CCCCCCCCCCCCCCCC,581.4 nm
same,emission maximum,in CCCCl,584.8 nm
same,emission maximum,in CCN(CC)CC,576.37 nm
same,emission maximum,in CCO,579.71 nm
same,emission maximum,in CCOCC,588.24 nm
same,emission maximum,in CO,573.07 nm
same,emission maximum,in OC(C(F)(F)F)C(F)(F)F,571.43 nm
same,emission maximum,in OCC(F)(F)F,573.07 nm
same,emission maximum,in OCCO,584.8 nm
O=C1OC(c2ccccc2)=N/C1=C\c1ccccc1,emission maximum,in C1COCCO1,447 nm
COC(=O)c1nc(Cl)c(-c2ccccc2)o1,emission maximum,in C1CCCCC1,344 nm
c1ccc(-c2nc(-c3ccc(N4c5ccccc5C(c5ccccc5)(c5ccccc5)c5ccccc54)cc3)cc(-c3ccccn3)n2)cc1,emission maximum,in Cc1ccccc1,460 nm
same,emission maximum,in O=P(c1ccccc1)(c1ccccc1)c1ccccc1Oc1ccccc1P(=O)(c1ccccc1)c1ccccc1,468 nm
COc1ccc(-c2[nH]c(=O)n3c2-c2ccccc2C3=O)c(OC)c1,emission maximum,in CC#N,492 nm
same,emission maximum,in CO,507 nm
same,emission maximum,in ClCCl,488 nm
COc1ccc(/C=C/C=C/C=C/c2ccc([N+](=O)[O-])cc2)cc1,emission maximum,in C1CCOC1,611 nm
same,emission maximum,in C1COCCO1,565 nm
same,emission maximum,in CC1CCCCC1,485 nm
same,emission maximum,in CC#N,740 nm
same,emission maximum,in CO,690 nm
same,emission maximum,in CS(C)=O,744 nm
same,emission maximum,in Cc1ccccc1,541 nm
same,emission maximum,in ClC(Cl)Cl,681 nm
same,emission maximum,in ClCCl,694 nm
O=C1Nc2ccccc2/C1=C/C(=O)c1ccc(Cl)cc1,emission maximum,in C1CCCCC1,382 nm
same,emission maximum,in C1COCCO1,394 nm
same,emission maximum,in CC#N,398 nm
same,emission maximum,in CC(C)(C)O,405 nm
same,emission maximum,in CC(C)O,404 nm
same,emission maximum,in CCCCCC,382 nm
same,emission maximum,in CCCCO,405 nm
same,emission maximum,in CCOC(C)=O,395 nm
same,emission maximum,in CN(C)C=O,398 nm
same,emission maximum,in CO,406 nm
same,emission maximum,in ClCCl,394 nm
same,emission maximum,in O,410 nm
c1ccc(-c2cnc3nn4ccccc4c3c2)cc1,emission maximum,in C1CCOC1,415 nm
c1cc2c3c(cccc3c1)C(N1CCOCCOCCOCCOCC1)=N2,emission maximum,in CC#N,590 nm
O=C(Cc1ccccc1)OCc1ccc2c3cccc4cccc(c5cccc1c52)c43,emission maximum,in CCO,445 nm
CCCCC(CC)Cn1c2cc(C#N)c(-c3ccc(N(c4ccccc4)c4ccccc4)cc3)cc2c2cc(-c3ccc(N(c4ccccc4)c4ccccc4)cc3)c(C#N)cc21 (stereo not drawn),emission maximum,in C1CCCCC1,450 nm
same,emission maximum,in C1CCOC1,494 nm
same,emission maximum,in CC#N,542 nm
same,emission maximum,in CCCCOCCCC,464 nm
same,emission maximum,in CCN(CC)CC,464.65 nm
same,emission maximum,in CCOC(C)=O,494 nm
same,emission maximum,in CCOCC,472 nm
same,emission maximum,in CN(C)C=O,542 nm
same,emission maximum,in Cc1ccccc1,473 nm
same,emission maximum,in ClC=C(Cl)Cl,478 nm
same,emission maximum,in ClCCl,513 nm
CCCCCn1c2ccccc2c(=O)c2ccccc21,emission maximum,in CS(C)=O,414 nm
same,emission maximum,in O,428 nm
CCOC(=O)CC[N+]1=c2cc3c(cc2CCC1)=Cc1c(c2cc4c5c(c2oc1=O)CCCN5CCC4)O3,emission maximum,in CC#N,687 nm
same,emission maximum,in CO,681 nm
same,emission maximum,in ClCCl,676 nm
same,emission maximum,in O,688 nm
COc1ccc(-c2cc3c(s2)-c2sc(-c4ccc(OC)cc4)cc2P(c2ccccc2)(c2ccccc2)=[O+][B-]3(c2c(C)cc(C)cc2C)c2c(C)cc(C)cc2C)cc1,emission maximum,in C1CCOC1,513 nm
CCN(CC)c1ccc([N+]2=Cc3ccc4c5c(ccc4c3O[B-]2(c2ccccc2)c2ccccc2)C=[N+](c2ccc(N(CC)CC)cc2)[B-](c2ccccc2)(c2ccccc2)O5)cc1,emission maximum,in Cc1ccccc1,627 nm
same,emission maximum,in ClCCl,644 nm
Nc1ccc(/C=C2\OC(=O)c3ccccc32)cc1,emission maximum,in CC#N,547.95 nm
same,emission maximum,in CC(C)=O,390.02 nm
same,emission maximum,in CC(C)CO,547.65 nm
same,emission maximum,in CC(C)O,548.25 nm
same,emission maximum,in CCCO,549.75 nm
same,emission maximum,in CCO,552.49 nm
same,emission maximum,in CCOC(C)=O,503.52 nm
same,emission maximum,in CCOCC,485.91 nm
same,emission maximum,in CO,552.49 nm
CC(C)(C)c1ccc(N(c2ccc(C(C)(C)C)cc2)c2ccc3c(N(c4ccc(C(C)(C)C)cc4)c4ccc(C(C)(C)C)cc4)cc4c5cc(N(c6ccc(C(C)(C)C)cc6)c6ccc(C(C)(C)C)cc6)ccc5c(N(c5ccc(C(C)(C)C)cc5)c5ccc(C(C)(C)C)cc5)cc4c3c2)cc1,emission maximum,in CC#N,470 nm
same,emission maximum,in CCCCCC,456 nm
same,emission maximum,in ClCCl,471 nm
Cc1cc2nc3[nH]c(=O)[nH]c(=O)c3nc2cc1C,emission maximum,in CC#N,437 nm
COc1ccc(N(c2ccc(C=C(c3ccccc3)c3ccccc3)cc2)c2ccc(C=C(c3ccccc3)c3ccccc3)cc2)cc1,emission maximum,in Cc1ccccc1,477 nm
